Source: paper PMC6968503, “Synthesis and human carbonic anhydrase I, II, VA, and XII inhibition with novel amino acid–sulphonamide conjugates” (Journal of Enzyme Inhibition and Medicinal Chemistry, 2020)
Read-outs that look alike come from different tables or passages of the source.

Experiments:
Assay in all cases: stopped-flow CO2 hydration
Format in all cases: biochemical
hCA XII = target: T1, hCA XII (Homo sapiens, UniProt O43570)
T1 construct: gene CA12
From the text: stopped-flow CO2 hydration on hCA XII

hCA I = target: T2, hCA I (Homo sapiens, UniProt P00915)
T2 construct: gene CA1
From the text: stopped-flow CO2 hydration on hCA I

hCA VA = target: T3, hCA VA (Homo sapiens, UniProt P35218)
T3 construct: gene CA5A
From the text: stopped-flow CO2 hydration on hCA VA

hCA II = target: T4, hCA II (Homo sapiens, UniProt P00918)
T4 construct: gene CA2
From the text: stopped-flow CO2 hydration on hCA II

T1 sequence (O43570 25-354): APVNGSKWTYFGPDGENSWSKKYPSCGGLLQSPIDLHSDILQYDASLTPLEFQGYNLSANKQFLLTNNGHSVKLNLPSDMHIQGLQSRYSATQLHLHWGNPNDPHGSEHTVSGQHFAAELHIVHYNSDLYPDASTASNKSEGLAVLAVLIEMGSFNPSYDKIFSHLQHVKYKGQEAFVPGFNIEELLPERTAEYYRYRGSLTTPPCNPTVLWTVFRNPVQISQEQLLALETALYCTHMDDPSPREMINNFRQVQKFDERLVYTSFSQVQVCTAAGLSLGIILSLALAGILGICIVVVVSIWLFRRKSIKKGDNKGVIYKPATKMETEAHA
T2 sequence (P00915 2-261): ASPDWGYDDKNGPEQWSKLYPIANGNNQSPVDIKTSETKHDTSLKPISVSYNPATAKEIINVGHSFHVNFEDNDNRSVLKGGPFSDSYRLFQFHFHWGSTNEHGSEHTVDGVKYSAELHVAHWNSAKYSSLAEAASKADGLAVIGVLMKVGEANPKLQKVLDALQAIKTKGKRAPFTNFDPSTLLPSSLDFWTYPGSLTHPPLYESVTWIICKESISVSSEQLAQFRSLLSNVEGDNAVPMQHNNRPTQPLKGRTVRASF
T3 sequence (P35218 39-305): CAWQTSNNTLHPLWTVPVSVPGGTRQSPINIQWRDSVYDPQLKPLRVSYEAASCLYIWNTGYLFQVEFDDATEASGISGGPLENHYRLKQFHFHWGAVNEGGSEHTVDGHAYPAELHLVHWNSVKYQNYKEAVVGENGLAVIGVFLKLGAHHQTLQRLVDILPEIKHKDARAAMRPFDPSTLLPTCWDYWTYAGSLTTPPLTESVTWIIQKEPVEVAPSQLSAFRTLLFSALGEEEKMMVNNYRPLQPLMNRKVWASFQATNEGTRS

Structure (SMILES)	Ki (hCA XII) [nM]	Ki (hCA I) [nM]	Ki (hCA VA) [nM]	Ki (hCA II) [nM]	Ki (hCA VA; CO2 […], […] HEPES pH […] Na2SO4, […] min preincubation, room temperature) [nM]
NS(=O)(=O)c1ccc(CCNC(=O)[C@@H](Cc2c[nH]c3ccccc23)NC(=O)OCc2ccccc2)cc1 [compound 8, Benzyl (R)-(3-(1H-indol-3-yl)-1-oxo-1-((4-sulphamoylphenethyl)amino)propan-2-yl)carbamate]	5.5	528	3010	6.5	–
CSCC[C@@H](NC(=O)OCc1ccccc1)C(=O)NCCc1ccc(S(N)(=O)=O)cc1 [compound 2, Benzyl (R)-(4-(methylthio)-1-oxo-1-((4-sulphamoylphenethyl)amino)butan-2-yl)carbamate]	53.9	–	63.4	1.7	–
C[C@@H](NC(=O)OC(C)(C)C)C(=O)NCCc1ccc(S(N)(=O)=O)cc1 [compound 5, tert-Butyl (R)-(1-oxo-1-((4-sulphamoylphenethyl)amino)propan-2-yl)carbamate]	45.6	73.5	68.7	6.6	–
CC(C)[C@@H](NC(=O)OC(C)(C)C)C(=O)NCCc1ccc(S(N)(=O)=O)cc1 [compound 10, tert-Butyl (R)-(3-methyl-1-oxo-1-((4-sulphamoylphenethyl)amino)butan-2-yl)carbamate]	197	2990	661	–	–
NS(=O)(=O)c1ccc(CCNC(=O)[C@@H](CSc2ccccc2)NC(=O)OCc2ccccc2)cc1 [compound 4, Benzyl (S)-(1-oxo-3-(phenylthio)-1-((4-sulphamoylphenethyl)amino)propan-2-yl)carbamate]	8.4	352	63.3	–	–
CC(C)C[C@@H](NC(=O)OCc1ccccc1)C(=O)NCCc1ccc(S(N)(=O)=O)cc1 [compound 1, Benzyl (R)-(4-methyl-1-oxo-1-((4-sulphamoylphenethyl)amino)pentan-2-yl)carbamate]	27.4	49.5	–	8.3	58.7
NS(=O)(=O)c1ccc(CCNC(=O)CNC(=O)OCC2c3ccccc3-c3ccccc32)cc1 [compound 6, (9H-fluoren-9-yl)methyl (2-oxo-2-((4-sulphamoylphenethyl)amino)ethyl)carbamate]	8.2	36	67.9	6.4	–
NS(=O)(=O)c1ccc(CCNC(=O)[C@H](Cc2ccccc2)NC(=O)OCC2c3ccccc3-c3ccccc32)cc1 [compound 7, (9H-fluoren-9-yl)methyl (S)-(1-oxo-3-phenyl-1-((4-sulphamoylphenethyl)amino)propan-2-yl)carbamate]	38.9	697	3440	76.4	–
CSCC[C@H](NC(=O)OC(C)(C)C)C(=O)NCCc1ccc(S(N)(=O)=O)cc1 [compound 9, tert-Butyl (S)-(4-(methylthio)-1-oxo-1-((4-sulphamoylphenethyl)amino)butan-2-yl)carbamate]	329	4390	611	–	–
NS(=O)(=O)c1ccc(CCNC(=O)C[C@@H](NC(=O)OCc2ccccc2)C(=O)NCCc2ccc(S(N)(=O)=O)cc2)cc1 [compound 12, Benzyl (R)-(1,4-dioxo-1,4-bis((4-sulphamoylphenethyl)amino)butan-2-yl)carbamate]	24.4	689	3140	215	–
CC[C@@H](C)[C@@H](NC(=O)OC(C)(C)C)C(=O)NCCc1ccc(S(N)(=O)=O)cc1 [compound 11, tert-Butyl ((2R,3R)-3-methyl-1-oxo-1-((4-sulphamoylphenethyl)amino)pentan-2-yl)carbamate]	56.2	349	3870	–	–
CC(C)[C@@H](NC(=O)OCc1ccccc1)C(=O)NCCc1ccc(S(N)(=O)=O)cc1 [compound 3, Benzyl (R)-(3-methyl-1-oxo-1-((4-sulphamoylphenethyl)amino)butan-2-yl)carbamate]	7.2	51.6	60.3	–	–
CC(C)C[C@@H](NC(=O)OCc1ccccc1)C(=O)NCc1ccc(S(N)(=O)=O)cc1 [compound 13, Benzyl (R)-(4-methyl-1-oxo-1-((4-sulphamoylbenzyl)amino)pentan-2-yl)carbamate]	39.8	61.1	578	86.6	–

Now from value to compound:

Ki (hCA XII) [nM]	Ki (hCA I) [nM]	Ki (hCA VA) [nM]	Ki (hCA II) [nM]	Ki (hCA VA; CO2 […], […] HEPES pH […] Na2SO4, […] min preincubation, room temperature) [nM]	Structure (SMILES)
90.1	753	4780	168	–	CC(C)[C@@H](NC(=O)OC(C)(C)C)C(=O)NCc1ccc(S(N)(=O)=O)cc1 [compound 22, tert-Butyl (R)-(3-methyl-1-oxo-1-((4-sulphamoylbenzyl)amino)butan-2-yl)carbamate]
50.3	178	4580	0.8	–	CC[C@@H](C)[C@@H](NC(=O)OC(C)(C)C)C(=O)NCc1ccc(S(N)(=O)=O)cc1 [compound 24, tert-Butyl ((2R,3R)-3-methyl-1-oxo-1-((4-sulphamoylbenzyl)amino)pentan-2-yl)carbamate]
26.7	5170	6830	693	–	NS(=O)(=O)c1ccc(CNC(=O)[C@H](Cc2ccccc2)NC(=O)OCC2c3ccccc3-c3ccccc32)cc1 [compound 20, (9H-fluoren-9-yl)methyl (S)-(1-oxo-3-phenyl-1-((4-sulphamoylbenzyl)amino)propan-2-yl)carbamate]
6.9	3780	734	61.4	–	CC(C)(C)OC(=O)N[C@H](Cc1ccccc1)C(=O)NCc1ccc(S(N)(=O)=O)cc1 [compound 19, tert-Butyl (R)-(1-oxo-3-phenyl-1-((4-sulphamoylbenzyl)amino)propan-2-yl)carbamate]
78.1	305	401	0.9	–	NS(=O)(=O)c1ccc(CNC(=O)[C@@H](Cc2c[nH]c3ccccc23)NC(=O)OCc2ccccc2)cc1 [compound 23, Benzyl (R)-(3-(1H-indol-3-yl)-1-oxo-1-((4-sulphamoylbenzyl)amino)propan-2-yl)carbamate]
3.9	5360	4990	316	–	CSCC[C@@H](NC(=O)OC(C)(C)C)C(=O)NCc1ccc(S(N)(=O)=O)cc1 [compound 21, tert-Butyl (R)-(4-(methylthio)-1-oxo-1-((4-sulphamoylbenzyl)amino)butan-2-yl)carbamate]
67.7	8.1	503	28.4	–	CC(C)[C@@H](NC(=O)OCc1ccccc1)C(=O)NCc1ccc(S(N)(=O)=O)cc1 [compound 15, Benzyl (R)-(3-methyl-1-oxo-1-((4-sulphamoylbenzyl)amino)butan-2-yl)carbamate]
8.8	3340	3650	6.8	–	CC(C)(C)OC(=O)NCC(=O)NCc1ccc(S(N)(=O)=O)cc1 [compound 17, tert-Butyl (2-oxo-2-((4-sulphamoylbenzyl)amino)ethyl)carbamate]
20.6	3890	5360	6.8	–	C[C@@H](NC(=O)OC(C)(C)C)C(=O)NCc1ccc(S(N)(=O)=O)cc1 [compound 18, tert-Butyl (R)-(1-oxo-1-((4-sulphamoylbenzyl)amino)propan-2-yl)carbamate]
37.1	764	3960	3.3	–	NS(=O)(=O)c1ccc(CNC(=O)[C@@H](CSc2ccccc2)NC(=O)OCc2ccccc2)cc1 [compound 16, Benzyl (S)-(1-oxo-3-(phenylthio)-1-((4-sulphamoylbenzyl)amino)propan-2-yl)carbamate]
74.3	9.3	384	8.9	–	CSCC[C@@H](NC(=O)OCc1ccccc1)C(=O)NCc1ccc(S(N)(=O)=O)cc1 [compound 14, Benzyl (R)-(4-(methylthio)-1-oxo-1-((4-sulphamoylbenzyl)amino)butan-2-yl)carbamate]
